Measurements taken from US10780094B2, “Use of carbonic anhydrase inhibitors for treatment of neurological and psychiatric disorders” (New York University, priority 2016, dated 2020).

Assays:
C57BL/6 mice = assay: Intra-hippocampal Aβ40-Q22 injection, immunohistochemistry; type: in vivo, mouse
Description: Six months old C57BL/6 mice were anesthetized with a mixture of ketamine and xylazine (120 and 10 mg/Kg respectively) i.p. and fixed to a stereotaxic frame (David Kopf Instruments, Tujunga, CaliforniaKopf). The body temperature was maintained stable with the use of a heating pad (Harvard Apparatus, Holliston, Mass.) for the total time of the surgery. A volume of 1 μl of a 10 μM fresh solution of Aβ40-Q22—chosen for its propensity to form toxic oligomers, and not fibrils, in the first few hours after solubilization—(Fossati et al., 2010) in PBS, or the vehicle for control mice, was injected in the hippocampus (Coordinates: AP=−2.7, L=−3.0 and H=−4.0, according to the Atlas of Paxinos and Franklin) at a flow rate of 0.1 μl/min. The needle (Hamilton 701 RN 10 μl syringe, RN needle 30/2″/3S) was left in place for two minutes and then slowly withdrawn. In the cases in which MTZ treatment was administered, mice were injected intraperitoneally with a solution of MTZ (20 mg/kg) 1 h before the Aβ40-Q22 intrahippocampal injection. At the selected time after injections, the animals were sacrificed by trans-cardiac perfusion (medium flow pump, Fisher Scientific 13-876-2, 10 ml/min flow rate) with PBS for 2 minutes followed by 4% paraphormaldehyde for 5 minutes. Brains were then removed from the skull and postfixed in 4% paraphormaldehyde for 2 h at 4° C. […] Brains were then washed in PBS, assembled in a plastic mold with Tissue-Tek O.C.T. compound (Fisher Scientific), and frozen with a mixture of liquid nitrogen and isopenthanol. Serial cryostat sections of 8 μm thickness were collected on positively charged microscope slides (Fisher Scientific) and stored at −80° C. until further immunohistochemical analysis.
For immunohistochemical staining, slices were warmed to RT for 5′ prior to use, rinsed in PBS and blocked with Mouse on Mouse (MOM) blocking reagent (2 drops in 2.5 ml of PBS, Vector Laboratories, Burlingame, Calif.) for 20 minutes. Incubation with the rabbit monoclonal antibody against active caspase-3 (Cell Signaling Technology) was performed overnight at 4° C. in PBS containing 0.1% triton X-100 and 5 mg/ml BSA. The day after, the sections were washed three times with PBS and incubated in Alexa Fluor 488- or 633-conjugated anti-rabbit IgG (Life Technologies; 1:200 in PBST with 5 mg/ml BSA; 1 h at RT), followed by primary anti-Aβ 6E10 (1:200 in PBS+MOM for 2 hours at RT), and by secondary Alexa Fluor 568 anti-mouse IgG. Finally, the slices were washed and the DNA counterstained with TO-PRO (Life Technologies) 1:1000 for 10 min, or with NeuN green neuronal staining (1:100 in PBS for 1 hour, Millipore, Temecula, Calif.). For staining of active microglial cells, tissue sections were incubated with anti IBA1 goat antibody (Abcam, Cambridge, Mass.) 1:200 in PBS containing 0.1% Triton and 5 mg/ml BSA for 1 hour, followed by Alexa Fluor 488 anti-goat IgG (1 hour). After washing, slides were mounted with an aqueous mounting medium (Vector Laboratories). Images were acquired in a Zeiss LSM 510 confocal microscope using 40× or 100× oil lens and processed using Image J and Adobe Photoshop. Images were acquired maintaining constant exposure for all samples across single experiments. For quantifications, stained brain slices corresponding to the injection site area of 3 or more animals were quantified with Image J. The total area of NeuN, caspase 3, Aβ and IBA1 positive cells was quantified and compared between different treatments.

[1] = system: mitochondria isolated from glial cells; assay: Mitochondrial H2O2 production (Amplex Red) after Aβ challenge; type: cell-based, human
Description: Production of H2O2 from isolated mitochondria was measured using Amplex Red Hydrogen Peroxide/Peroxidase Assay (Life Technologies). Cells were treated with Aβ peptides, in the presence or absence of MTZ. After 16 hours of treatment, the mitochondrial fraction was separated from nuclear and cytoplasmic fractions as previously described (Fossati et al., 2013). Protein concentration in the mitochondrial fraction was measured by BCA assay (Thermo Scientific, Rockford, Ill.), in order to include the same amount of mitochondria in each sample. Functional mitochondrial fractions were distributed in a 96 well plate with Reaction Buffer and Amplex Red solution following the manufacturer's specifications. The plate was incubated in the dark at room temperature for 30 minutes before colorimetric evaluation of the Amplex Red reaction at 560 nm.

SH-SY5Y and D3 cells = assay: Aβ-induced cell death pathways (caspase 3 and 9 activation, CytC release, apoptosis); type: cell-based, human
Description: SH-SY5Y and D3 cells were plated on 15 mm optical borosilicate poly-L-lysine-coated sterile glass covers (ThermoFisher, Waltham, Mass., US) at a 70% confluence. After 24 hours, cells were treated with the peptides, the drugs or the different combinations of both of them, rinsed in PBS 1×, and fixed with 4% paraformaldehyde for 20 minutes. After that, the coverslips were washed once for 5 minute with PBS 1×, room temperature and twice for 5 minutes with cold PBS 1×. Cells were then permeabilized and blocked for 1 h with BSA 20 mg/mL+Triton 0.3% on PBS and incubated with the anti-active caspase-3 antibody, on PBS containing BSA 5 mg/mL, for 2 h. Next, cells were washed three times for 5 min each with PBS 1× and incubated with the secondary antibody (Alexa Fluor 488 anti-mouse antibody), at a 1:200 dilution in PBS containing BSA 5 mg/mL for an additional hour in the dark. Cells were then washed three times in the dark with 1 mL of PBS 1× and mounted on cover slips (ThermoFisher, Waltham, Mass., US). After mounting, cells were imaged, using a Nikon Eclipse Ti inverted microscope with a 20× objective (Nikon, Chiyoda. Tokyo, Japan).
Cells were plated at a confluence of 10.000 cells per well in 96-wells microplate luminescence microtiter (ThermoFisher, Waltham, Mass., US). The day after, cells were treated with the peptides and/or drugs for the experimental times. After that, caspase-Glo 9 assay was performed, following the protocol provided from the manufacturer. Luminescence was measured using a FlexStation 3 Multi-Mode Microplate Reader (Molecular devices, Sunnyvalem Calif., US).
20.000 cells per well were plated on 24-wells plates. The day after, cells were treated with peptides and/or drugs, following the experimental conditions.

[2] = MTZ IP one hour before peptide injection

Row | Structure (SMILES) | activation of caspase-3 induced by Aβ in CA1 neurons (C57BL/6 mice; 20 mg/Kg MTZ IP 1 hour prior to Aβ40-Q22 injection, sacrificed 4 hours after) | Aβ staining in the injected hemisphere (C57BL/6 mice; Aβ in the presence or absence of MTZ, FIG. 9A) | active-caspase 3 staining in IBA1- and Aβ-positive microglia (C57BL/6 mice; MTZ IP before Aβ injection) | caspase activation in the vicinity of the injection site (C57BL/6 mice; [2]) | loss of NeuN immunoreactivity in the vicinity of the injection site (C57BL/6 mice; [2]) | brain entry after systemic administration (C57BL/6 mice; inferred from efficacy after IP dosing) | Aβ-induced increase in H2O2 production by isolated mitochondria ([1]; Example 1, Aβ with MTZ) | H2O2 production, drug alone ([1]; MTZ alone, untreated cells) | caspase activation and CytC release induced by Aβ (SH-SY5Y and D3 cells; ATZ) | effective concentration lower than that of MTZ (SH-SY5Y and D3 cells; ATZ versus MTZ) | nuclear chromatin condensation indicative of apoptosis (SH-SY5Y and D3 cells; Aβ challenge, FIGS. 16A-16B)
1 | CC(=O)/N=c1/sc(S(N)(=O)=O)nn1C [MTZ, methazolamide] | prevented | similarly increased | notably lower | significantly reduced | significantly reduced | can enter the mouse brain | completely reverted | did not have any effect | – | – | –
2 | CC(=O)Nc1nnc(S(N)(=O)=O)s1 [ATZ, acetazolamide] | – | – | – | – | – | – | – | – | completely reverting | 10 times | prevented
